# Laboratory results: patent US20230264009A1, “DISINFECTING CAP KIT FOR LUER ACCESS DEVICES” (SterileCare Inc., priority 2022, published 2023)
# Tests used:
# [1] = test system: MRSA ON184; experiment: MIC, micro broth dilution; format: cell-based, Staphylococcus aureus; details: alone, 24 h
# Protocol: (§1) An assay was made using a minimum inhibitory concentration (MIC) and minimum bactericidal concentration (MBC) and minimum fungicidal concentration (MFC) determination. The MIC was determined by the micro broth dilution method in 96-well plates. Serial two-fold dilutions of tetrasodium EDTA (from 2% to 0.015%), ethanol (from 50% to 0.1%) and chlorhexidine HCl (from 100 µg/mL to 0.025 µg/mL) were prepared in MH broth with a final volume of 90 µL per well. A 10 µL containing 1 × 10^5 bacterial cells or 2 × 10^3 fungal cells were added to each well. The inoculated plates were covered with a lid, sealed with Parafilm, and incubated for 24 h at 37° C. with slight rocking on a tilting platform shaker. After incubation, the optical density at 600 nm (OD 600 ) of the cultures in each well was measured using an xMark™ Microplate Absorbance Spectrophotometer (Bio-Rad). […] MBCs and MFCs were determined by transferring 100 µL from each well with no apparent growth onto appropriate agar plates, followed by incubation for 24 h at 37° C.
# [2] = test system: C. albicans ON47; experiment: MIC, micro broth dilution; format: cell-based, Candida albicans; details: alone, 24 h
# Protocol: as §1
# [3] = test system: E. coli SK2; experiment: MBC/MFC determination; format: cell-based, Escherichia coli; details: alone
# Protocol: as §1
# [4] = test system: MRSA ON184; experiment: Checkerboard titration, FICI; format: cell-based, Staphylococcus aureus
# Protocol: (§2) A fourth composition and solution included tetrasodium EDTA with ethanol or chlorhexidine HCl. This fourth composition and solution were created using checkerboard titration methods using micro broth dilution in 96-well microtiter plates. The concentrations of antimicrobials used were based on previously determined MIC values. Briefly, 200 µL of two-fold dilutions of tetrasodium EDTA and ethanol or chlorhexidine HCl were prepared in MH or MH II broth with standardized cell suspension. […] Microtiter plates were incubated at 37° C. for 24 h, and the results were analyzed. Each test was performed in duplicate and included a growth control without adding any antimicrobials.
# [5] = test system: Candida albicans SK4b; experiment: Checkerboard titration, FICI; format: cell-based; details: C. albicans SK4b
# Protocol: as §2
# [6] = test system: Escherichia coli ON29; experiment: Checkerboard titration, FICI; format: cell-based; details: E. coli ON29
# Protocol: as §2
# [7] = test system: Proteus mirabilis ON153; experiment: Checkerboard titration, FICI; format: cell-based; details: P. mirabilis ON153
# Protocol: as §2
# [8] = test system: Pseudomonas aeruginosa SK1; experiment: Checkerboard titration, FICI; format: cell-based; details: P. aeruginosa SK1
# Protocol: as §2
# [9] = test system: Serratia marcescens SK2; experiment: Checkerboard titration, FICI; format: cell-based; details: S. marcescens SK2
# Protocol: as §2
# [10] = test system: Staphylococcus aureus ON89; experiment: Checkerboard titration, FICI; format: cell-based; details: S. aureus ON89
# Protocol: as §2
# [11] = test system: Staphylococcus epidermidis ON170; experiment: Checkerboard titration, FICI; format: cell-based; details: S. epidermidis ON170
# Protocol: as §2
# [12] = test system: Stenotrophomonas maltophilia ON17; experiment: Checkerboard titration, FICI; format: cell-based; details: S. maltophilia ON17
# Protocol: as §2
# [13] = test system: MRSA ON184; experiment: Checkerboard titration, FMCI; format: cell-based, Staphylococcus aureus
# Protocol: as §1, §2
# [14] = test system: C. albicans ON47; experiment: Checkerboard titration, FMCI; format: cell-based, Candida albicans
# Protocol: as §1, §2
# [15] = test system: Pseudomonas aeruginosa SK1 biofilm; experiment: FBEC index, checkerboard dilution on biofilms; format: cell-based; details: P. aeruginosa SK1 biofilm
# Protocol: (§3) In step (4), microtiter plates are incubated at 37° C. for 24 h. then (6), after incubation, the bacterial and fungal cells were dislodged from the pegs into the recovery medium described above.
# (§4) Three 10-µL aliquots, for a total of 30 µL from each well of recovery medium, were spotted on MH agar plates and incubated for 24 h at 37° C. […] The FBEC determination is a modification of the FICI.
# [16] = test system: Escherichia coli SK2 biofilm; experiment: FBEC index, checkerboard dilution on biofilms; format: cell-based; details: E. coli SK2 biofilm
# Protocol: as §3, §4
# [17] = test system: Candida albicans SK4b biofilm; experiment: FBEC index, checkerboard dilution on biofilms; format: cell-based; details: C. albicans SK4b biofilm
# Protocol: as §3, §4
# [18] = tetrasodium EDTA + chlorhexidine HCl
smiles,measurement,setting,value
"O=C([O-])CN(CCN(CC(=O)[O-])CC(=O)[O-])CC(=O)[O-].[Na+].[Na+].[Na+].[Na+] [EDTA, tetrasodium EDTA]",MIC,[1],0.063 % w/v
same,MIC,[2],1 % w/v
same,MBC/MFC,[3],0.5 % w/v
same,Concentration in combination giving FICI,[4]; [18],0.008 % w/v
same,Concentration in combination giving FICI,[4]; tetrasodium EDTA + ethanol,0.015 % w/v
same,Concentration in combination giving FICI,[5]; [18],0.063 % w/v
same,Concentration in combination giving FICI,[5]; tetrasodium EDTA + ethanol,0.25 % w/v
same,Concentration in combination giving FICI,[6]; [18],0.008 % w/v
same,Concentration in combination giving FICI,[6]; tetrasodium EDTA + ethanol,0.25 % w/v
same,Concentration in combination giving FICI,[7]; [18],0.063 % w/v
same,Concentration in combination giving FICI,[7]; tetrasodium EDTA + ethanol,0.5 % w/v
same,Concentration in combination giving FICI,[8]; [18],0.5 % w/v
same,Concentration in combination giving FICI,[8]; tetrasodium EDTA + ethanol,0.031 % w/v
same,Concentration in combination giving FICI,[9]; [18],0.063 % w/v
same,Concentration in combination giving FICI,[9]; tetrasodium EDTA + ethanol,0.5 % w/v
same,Concentration in combination giving FICI,[10]; [18],0.008 % w/v
same,Concentration in combination giving FICI,[10]; tetrasodium EDTA + ethanol,0.015 % w/v
same,Concentration in combination giving FICI,[11]; [18],0.063 % w/v
same,Concentration in combination giving FICI,[11]; tetrasodium EDTA + ethanol,0.015 % w/v
same,Concentration in combination giving FICI,[12]; [18],0.015 % w/v
same,Concentration in combination giving FICI,[12]; tetrasodium EDTA + ethanol,0.031 % w/v
same,Concentration in combination giving FMCI,[13]; [18],0.125 % w/v
same,Concentration in combination giving FMCI,[13]; tetrasodium EDTA + ethanol,0.031 % w/v
same,Concentration in combination giving FMCI,[14]; [18],0.031 % w/v
same,Concentration in combination giving FMCI,[14]; tetrasodium EDTA + ethanol,0.25 % w/v
same,FBEC (concentration in combination),[15]; [18],0.25 % w/v
same,FBEC (concentration in combination),[15]; tetrasodium EDTA + ethanol,0.125 % w/v
same,FBEC (concentration in combination),[16]; [18],0.031 % w/v
same,FBEC (concentration in combination),[16]; tetrasodium EDTA + ethanol,0.125 % w/v
same,FBEC (concentration in combination),[17]; [18],0.063 % w/v
same,FBEC (concentration in combination),[17]; tetrasodium EDTA + ethanol,0.125 % w/v
